From ChEMBL document CHEMBL5724806, “Unraveling interindividual differences and functional consequences of gut microbial metabolism of immunosuppressants” (2024)

Experiments:
Format in all cases: ADME
[1] = (§1) The drug is tested on Odoribacter splanchnicus strain: DSM20712 for biotransformation under anaerobic condition. The drug concentrations were measured over 6 timepoints collected between 0 and 12 hours of incubation by liquid-chromatography-coupled mass spectrometry (LC–MS); set-up: dose 5 uM, timepoint 0, 1.5, 3, 6, 9, 12 hours; settings: 5 µM
[2] = The drug is tested on Parabacteroides distasonis strain: DSM20701 for biotransformation under anaerobic condition. The drug concentrations were measured over 6 timepoints collected between 0 and 12 hours of incubation by liquid-chromatography-coupled mass spectrometry (LC–MS); set-up: dose 5 uM, timepoint 0, 1.5, 3, 6, 9, 12 hours; settings: 5 µM
[3] = (§2) The drug is tested on Enterococcus faecalis strain: ATCC29212 for biotransformation under microaerobic condition. The drug concentrations were measured over 6 timepoints collected between 0 and 12 hours of incubation by liquid-chromatography-coupled mass spectrometry (LC–MS); set-up: dose 5 uM, timepoint 0, 1.5, 3, 6, 9, 12 hours; settings: 5 µM
[4] = The drug is tested on Lactobacillus gasseri strain: DSM20243 for biotransformation under microaerobic condition. The drug concentrations were measured over 6 timepoints collected between 0 and 12 hours of incubation by liquid-chromatography-coupled mass spectrometry (LC–MS); set-up: dose 5 uM, timepoint 0, 1.5, 3, 6, 9, 12 hours; settings: 5 µM
[5] = The drug is tested on Blautia hansenii strain: DSM20583 for biotransformation under anaerobic condition. The drug concentrations were measured over 6 timepoints collected between 0 and 12 hours of incubation by liquid-chromatography-coupled mass spectrometry (LC–MS); set-up: dose 5 uM, timepoint 0, 1.5, 3, 6, 9, 12 hours; settings: 5 µM
[6] = as §2, with “the gut metagenome community of A-06 with ENA study accession number: PRJEB31790” for “Enterococcus faecalis strain: ATCC29212”, “7” for “6”; set-up: dose 5 uM, timepoint 0, 0.75, 1.5, 3, 6, 9, 12 hours; settings: 5 µM
[7] = as §1, with “the gut metagenome community of A-09 with ENA study accession number: PRJEB31790” for “Odoribacter splanchnicus strain: DSM20712”, “7” for “6”; set-up: dose 5 uM, timepoint 0, 0.75, 1.5, 3, 6, 9, 12 hours; settings: 5 µM
[8] = The drug is tested on Streptococcus anginosus strain: DSM20563 for biotransformation under anaerobic condition. The drug concentrations were measured over 6 timepoints collected between 0 and 12 hours of incubation by liquid-chromatography-coupled mass spectrometry (LC–MS); set-up: dose 5 uM, timepoint 0, 1.5, 3, 6, 9, 12 hours; settings: 5 µM
[9] = as §2, with “the gut metagenome community of A-10 with ENA study accession number: PRJEB31790” for “Enterococcus faecalis strain: ATCC29212”, “7” for “6”; set-up: dose 5 uM, timepoint 0, 0.75, 1.5, 3, 6, 9, 12 hours; settings: 5 µM
[10] = The drug is tested on Parabacteroides merdae strain: DSM19495 for biotransformation under anaerobic condition. The drug concentrations were measured over 6 timepoints collected between 0 and 12 hours of incubation by liquid-chromatography-coupled mass spectrometry (LC–MS); set-up: dose 5 uM, timepoint 0, 1.5, 3, 6, 9, 12 hours; settings: 5 µM
[11] = The drug is tested on Lactobacillus fermentum strain: DSM20052 for biotransformation under microaerobic condition. The drug concentrations were measured over 6 timepoints collected between 0 and 12 hours of incubation by liquid-chromatography-coupled mass spectrometry (LC–MS); set-up: dose 5 uM, timepoint 0, 1.5, 3, 6, 9, 12 hours; settings: limosilactobacillus fermentum, 5 µM
[12] = The drug is tested on Coprococcus comes strain: ATCC27758 for biotransformation under anaerobic condition. The drug concentrations were measured over 6 timepoints collected between 0 and 12 hours of incubation by liquid-chromatography-coupled mass spectrometry (LC–MS); set-up: dose 5 uM, timepoint 0, 1.5, 3, 6, 9, 12 hours; settings: 5 µM
[13] = The drug is tested on Actinomyces graevenitzii strain: DSM15540 for biotransformation under microaerobic condition. The drug concentrations were measured over 6 timepoints collected between 0 and 12 hours of incubation by liquid-chromatography-coupled mass spectrometry (LC–MS); set-up: dose 5 uM, timepoint 0, 1.5, 3, 6, 9, 12 hours; settings: 5 µM
[14] = The drug is tested on Clostridium bolteae strain: DSM15670 for biotransformation under anaerobic condition. The drug concentrations were measured over 6 timepoints collected between 0 and 12 hours of incubation by liquid-chromatography-coupled mass spectrometry (LC–MS); set-up: dose 5 uM, timepoint 0, 1.5, 3, 6, 9, 12 hours; settings: enterocloster bolteae, 5 µM
[15] = The drug is tested on Eubacterium hallii strain: DSM3353 for biotransformation under anaerobic condition. The drug concentrations were measured over 6 timepoints collected between 0 and 12 hours of incubation by liquid-chromatography-coupled mass spectrometry (LC–MS); set-up: dose 5 uM, timepoint 0, 1.5, 3, 6, 9, 12 hours; settings: anaerobutyricum hallii, 5 µM
[16] = The drug is tested on Faecalibacterium prausnitzii strain: DSM17677 for biotransformation under anaerobic condition. The drug concentrations were measured over 6 timepoints collected between 0 and 12 hours of incubation by liquid-chromatography-coupled mass spectrometry (LC–MS); set-up: dose 5 uM, timepoint 0, 1.5, 3, 6, 9, 12 hours; settings: faecalibacterium duncaniae, 5 µM
[17] = as §1, with “the gut metagenome community of T-03 with ENA study accession number: PRJEB31790” for “Odoribacter splanchnicus strain: DSM20712”, “7” for “6”; set-up: dose 5 uM, timepoint 0, 0.75, 1.5, 3, 6, 9, 12 hours; settings: 5 µM
[18] = The drug is tested on Actinomyces naeslundi strain: DSM43013 for biotransformation under anaerobic condition. The drug concentrations were measured over 6 timepoints collected between 0 and 12 hours of incubation by liquid-chromatography-coupled mass spectrometry (LC–MS); set-up: dose 5 uM, timepoint 0, 1.5, 3, 6, 9, 12 hours; settings: actinomyces naeslundii, 5 µM
[19] = as §1, with “the gut metagenome community of A-03 with ENA study accession number: PRJEB31790” for “Odoribacter splanchnicus strain: DSM20712”, “7” for “6”; set-up: dose 5 uM, timepoint 0, 0.75, 1.5, 3, 6, 9, 12 hours; settings: 5 µM
[20] = The drug is tested on Streptococcus mitis strain: DSM12643 for biotransformation under anaerobic condition. The drug concentrations were measured over 6 timepoints collected between 0 and 12 hours of incubation by liquid-chromatography-coupled mass spectrometry (LC–MS); set-up: dose 5 uM, timepoint 0, 1.5, 3, 6, 9, 12 hours; settings: 5 µM
[21] = The drug is tested on Roseburia intestinalis strain: DSM14610 for biotransformation under anaerobic condition. The drug concentrations were measured over 6 timepoints collected between 0 and 12 hours of incubation by liquid-chromatography-coupled mass spectrometry (LC–MS); set-up: dose 5 uM, timepoint 0, 1.5, 3, 6, 9, 12 hours; settings: 5 µM
[22] = The drug is tested on Bacteroides uniformis strain: DSM6597 for biotransformation under anaerobic condition. The drug concentrations were measured over 6 timepoints collected between 0 and 12 hours of incubation by liquid-chromatography-coupled mass spectrometry (LC–MS); set-up: dose 5 uM, timepoint 0, 1.5, 3, 6, 9, 12 hours; settings: 5 µM
[23] = The drug is tested on Bifidobacterium longum strain: DSM20088 for biotransformation under microaerobic condition. The drug concentrations were measured over 6 timepoints collected between 0 and 12 hours of incubation by liquid-chromatography-coupled mass spectrometry (LC–MS); set-up: dose 5 uM, timepoint 0, 1.5, 3, 6, 9, 12 hours; settings: 5 µM
[24] = The drug is tested on Bacteroides caccae strain: DSM19024 for biotransformation under anaerobic condition. The drug concentrations were measured over 6 timepoints collected between 0 and 12 hours of incubation by liquid-chromatography-coupled mass spectrometry (LC–MS); set-up: dose 5 uM, timepoint 0, 1.5, 3, 6, 9, 12 hours; settings: 5 µM
[25] = The drug is tested on Dorea formicigenerans strain: DSM3992 for biotransformation under anaerobic condition. The drug concentrations were measured over 6 timepoints collected between 0 and 12 hours of incubation by liquid-chromatography-coupled mass spectrometry (LC–MS); set-up: dose 5 uM, timepoint 0, 1.5, 3, 6, 9, 12 hours; settings: 5 µM
[26] = The drug is tested on Streptococcus mitis strain: DSM12643 for biotransformation under microaerobic condition. The drug concentrations were measured over 6 timepoints collected between 0 and 12 hours of incubation by liquid-chromatography-coupled mass spectrometry (LC–MS); set-up: dose 5 uM, timepoint 0, 1.5, 3, 6, 9, 12 hours; settings: 5 µM
[27] = The drug is tested on Streptococcus sanguinis strain: DSM20567 for biotransformation under anaerobic condition. The drug concentrations were measured over 6 timepoints collected between 0 and 12 hours of incubation by liquid-chromatography-coupled mass spectrometry (LC–MS); set-up: dose 5 uM, timepoint 0, 1.5, 3, 6, 9, 12 hours; settings: 5 µM
[28] = The drug is tested on Escherichia coli strain: DSM27469 for biotransformation under microaerobic condition. The drug concentrations were measured over 6 timepoints collected between 0 and 12 hours of incubation by liquid-chromatography-coupled mass spectrometry (LC–MS); set-up: dose 5 uM, timepoint 0, 1.5, 3, 6, 9, 12 hours; settings: 5 µM

| Bacterial Biotransformation [1] | Bacterial Biotransformation [2] | Bacterial Biotransformation [3] | Bacterial Biotransformation [4] | Bacterial Biotransformation [5] | Bacterial Biotransformation [6] | Bacterial Biotransformation [7] | Bacterial Biotransformation [8] | Bacterial Biotransformation [9] | Bacterial Biotransformation [10] | Bacterial Biotransformation [11] | Bacterial Biotransformation [12] | Bacterial Biotransformation [13] | Bacterial Biotransformation [14] | Bacterial Biotransformation [15] | Bacterial Biotransformation [16] | Bacterial Biotransformation [17] | Bacterial Biotransformation [18] | Bacterial Biotransformation [19] | Bacterial Biotransformation [20] | SMILES | other results |
| --- | --- | --- | --- | --- | --- | --- | --- | --- | --- | --- | --- | --- | --- | --- | --- | --- | --- | --- | --- | --- | --- |
| Compound NOT metabolized | Compound NOT metabolized | Compound NOT metabolized | Compound NOT metabolized | Compound NOT metabolized | Compound metabolized | Compound metabolized | Compound NOT metabolized | Compound NOT metabolized | Compound NOT metabolized | Compound NOT metabolized | Compound NOT metabolized | Compound NOT metabolized | Compound NOT metabolized | Compound NOT metabolized | Compound NOT metabolized | Compound NOT metabolized | Compound NOT metabolized | Compound metabolized | Compound NOT metabolized | C[C@@H]1C[C@H]2[C@@H]3CCC4=CC(=O)C=C[C@]4(C)[C@@]3(F)[C@@H](O)C[C@]2(C)[C@@]1(O)C(=O)CO [DEXAMETHASONE] | Bacterial Biotransformation [21]: Compound NOT metabolized; Bacterial Biotransformation [22]: Compound NOT metabolized; Bacterial Biotransformation [23]: Compound NOT metabolized; Bacterial Biotransformation [24]: Compound NOT metabolized; Bacterial Biotransformation [25]: Compound NOT metabolized; Bacterial Biotransformation [26]: Compound NOT metabolized; Bacterial Biotransformation [27]: Compound NOT metabolized; Bacterial Biotransformation [28]: Compound NOT metabolized |
| Compound NOT metabolized | Compound metabolized | Compound NOT metabolized | Compound metabolized | Compound NOT metabolized | Compound metabolized | Compound metabolized | Compound NOT metabolized | Compound metabolized | Compound metabolized | Compound NOT metabolized | Compound NOT metabolized | Compound NOT metabolized | Compound NOT metabolized | Compound NOT metabolized | Compound NOT metabolized | Compound NOT metabolized | Compound NOT metabolized | Compound metabolized | Compound NOT metabolized | COc1ccc([C@@H]2Sc3ccccc3N(CCN(C)C)C(=O)[C@@H]2OC(C)=O)cc1 [DILTIAZEM] | Bacterial Biotransformation [21]: Compound NOT metabolized; Bacterial Biotransformation [22]: Compound metabolized; Bacterial Biotransformation [23]: Compound NOT metabolized; Bacterial Biotransformation [24]: Compound NOT metabolized; Bacterial Biotransformation [25]: Compound NOT metabolized; Bacterial Biotransformation [26]: Compound NOT metabolized; Bacterial Biotransformation [27]: Compound NOT metabolized; Bacterial Biotransformation [28]: Compound metabolized |
| Compound NOT metabolized | Compound NOT metabolized | Compound NOT metabolized | Compound NOT metabolized | Compound metabolized | Compound metabolized | Compound metabolized | Compound NOT metabolized | Compound NOT metabolized | Compound NOT metabolized | Compound NOT metabolized | Compound metabolized | Compound NOT metabolized | Compound metabolized | Compound metabolized | Compound NOT metabolized | Compound NOT metabolized | Compound NOT metabolized | Compound metabolized | Compound NOT metabolized | CO[C@H]1C[C@@H]2CC[C@@H](C)[C@@](O)(O2)C(=O)C(=O)N2CCCC[C@H]2C(=O)O[C@H]([C@H](C)C[C@@H]2CC[C@@H](OCCO)[C@H](OC)C2)CC(=O)[C@H](C)/C=C(\C)[C@@H](O)[C@@H](OC)C(=O)[C@H](C)C[C@H](C)/C=C/C=C/C=C/1C [EVEROLIMUS] | Bacterial Biotransformation [21]: Compound metabolized; Bacterial Biotransformation [22]: Compound NOT metabolized; Bacterial Biotransformation [23]: Compound NOT metabolized; Bacterial Biotransformation [24]: Compound NOT metabolized; Bacterial Biotransformation [25]: Compound metabolized; Bacterial Biotransformation [26]: Compound NOT metabolized; Bacterial Biotransformation [27]: Compound NOT metabolized; Bacterial Biotransformation [28]: Compound NOT metabolized |
